Experimental data from US4766116A, “Diaryl butyric acid derivative and pharmaceutical use thereof” (Suntory Limited, priority 1984, dated 1988).
Structures can show the parent of a compound that is named as a salt.

Experiments:
Male ddY mice [1] = assay: Scopolamine Amnesia Activity (step-through passive avoidance learning); assay type: in vivo; settings: Mus musculus; ip immediately after first session; scopolamine 0.5 mg/kg hypodermically; retention test 24 hours later; read-out: Scopolamine Amnesia EDmin (Minimum effective dose)
From the text: Ten male ddY mice having a body weight of 22 to 30 g were used as one group. A slit was located between a light room and a dark room. In the dark room, an arrangement was made whereby an electric shock was given to the feet by an electric current. Thus, the behavior of the mice in relation to step-through to the dark room was studied. The mice were amnesically treated with an administration of scopolamine with or without the injection of the sample compound 1 or 7 and the time taken to avoid step-through by the mice to the dark room was determined by the so-called step-through passive avoidance learning method. The electric current used was 0.6 mA. The scopolamine was hypodermically injected in an amount of 0.5 mg/kg at 20 minutes prior to the first session and the sample compound was intraperitoneally injected immediately after the first session. The retention test (i.e., the second session) was carried out 24 hours later.

[2] = tested on: lipid peroxides in the blood serum; assay: Antilipid Peroxidation Activity (B), lipid peroxides in blood serum of alloxan-injected mice; assay type: in vivo, Male ddY mice; settings: ip, 24 hours after alloxan 85 mg/kg
Procedure: (B) Male ddY mice having a body weight of 24 to 27 g were used (i.e., 5 to 9 mice in one group). After 16 to 17 hours nestia, 85 mg/kg of alloxan was rapidly injected into the tail vein of the mice. After injecting the alloxan, the mice were subjected to free feeding and free water intaking and, 24 hours later, the sample compound was intraperitoneally injected into the mice. After an additional 24 hours, anesthesia was applied to the mice with ether and the blood of alvine aorta and cava was sampled. The amounts of the lipid peroxides in the blood serum were quantitatively measured according to a Yagi's method (i.e., K. Yagi, Biochem. Med., 15, 212, 1976).
The results were compared with that of a control group to which only a physiological saline was injected.

rat brain homogenate = assay: Antilipid Peroxidation Activity (A), rat brain homogenate, TBA reaction; assay type: biochemical, Male Wister rats; settings: at 10^-4 M, 37° C., 30 minutes
Procedure: (A) Male Wister rats having a body weight of 350 to 380 g were used. A rat was decapitated and the whole brain other than the cerebellum was homogenized in 10 times volume of ice cooled 50 mM buffered saline (PBS) having a pH of 7.4. The homogenized mixture was then centrifugally separated and the resultant supernatant frozen at a temperature of -30° C. The frozen specimen was melted in flowing water and was then diluted with 3 times volume PBS to prepare the diluted homogenate.
A 10 μl of a solution of the sample compound prepared in the Synthesis Example 1 or 7 was added to 1 ml of the diluted homogenate obtained above and the mixture was incubated at a temperature of 37° C. for 30 minutes. […]
As is the case of the test compound solution, 10 μl of the standard solution of tetramethoxypropane (TMP) was prepared and was added to the reaction mixture in amounts of 0 to 10 nmole/tube. […] Thereafter, the resultant layers were stabilized for 10 minutes at 2,000 rpm and the absorbance of the organic layer at 532 nm or the fluorescence intensity of the organic layer at 553 nm (excited at 515 nm) were determined. The lipid peroxide content was determined and represented a nmole number of malon dialdehyde (MDA) per mg of protein. The protein was determined by a Lawry method (i.e., Lawry et al., J. Biol. Chem., 193, 265 (1951)).

Male ddY mice [3] = assay: Hypobaric Hypoxia Activity (survival time at 180 mmHg); assay type: in vivo; settings: for minimal effective dose: Mus musculus, ip, 30 minutes before evacuation to 180 mmHg, vs physiological saline, read-out: Hypobaric Hypoxia EDmin (Minimum effective dose)
Procedure: Male ddY mice having a body weight of 22 to 30 g were used (i.e., 7 to 10 mice in one group). The mice were […] sample compound prepared in the Synthesis Example 1 or 7 was intraperitoneally injected into the mice. The desiccator was evacuated 30 minutes after the injection and the time from the start of the evacuation to the termination of breathing by the mice was determined to be the survival time. If a mouse was still alive 15 minutes after exposure to the hypoxia, the survival time was assumed to be 15 minutes.

Male ddY mice [4] = assay: Normobaric Hypoxia Activity (survival time in 96% N2 and 4% O2); assay type: in vivo; settings: ip, 30 minutes before
Procedure: Male ddY mice having a body weight of 22 to 30 g were used (i.e., 7 to 10 mice in one group). The sample compound prepared in the Synthesis Example 1 or 7 was intraperitoneally injected into the mice and, 30 minutes later, the mice were placed in a desiccator having a volume of about 1 liter and filled with a gas mixture of 96% N2 and 4% O2. The survival time up to the termination of breathing by the mice was determined. During the test, the N2 --O2 gas mixture was continuously supplied at a rate of 3 l/min. When the survival time was more than 15 minutes, the survival time was assumed to be 15 minutes. The results were compared with a control group, to which only a physiological saline was injected.

Male ddY mice [5] = assay: Global Ischemia Activity (gasping time after decapitation); assay type: in vivo; settings: for minimal effective dose: Mus musculus, ip, 30 minutes before decapitation, vs saline control, read-out: Global Ischemia EDmin (Minimum effective dose); for extension of the gasping time: at a dose of 50 mg/kg or less, injected
Procedure: Male ddY mice having a body weight of 22 to 30 g were used (i.e., 6 mice in one group). The sample compound prepared in the Synthesis Example 1 or 7 was intraperitoneally injected into the mice and the mice were decapitated 30 minutes after the injection. After decapitation, the gasping times were determined. The results were compared with a control group to which only the saline was injected.

Male mice = assay: Hemicholinium No. 3 (HC-3) Induced Anoxia Activity (survival time); assay type: in vivo; settings: Mus musculus; ip, 15 minutes before 5 mg/kg hemicholinium No. 3 into tail vein; read-out: HC-3 Induced Anoxia EDmin (Minimum effective dose)
Procedure: Male mice having a body weight of 22 to 30 g were used (i.e., 7 to 10 mice in one group). The sample compound prepared in the Synthesis Example 1 or 7 was intraperitoneally injected into the mice and, 15 minutes later, 5 mg/kg of hemicholinium No. 3 was injected into the tail vein of the mice. The time from the injection of hemicholinium No. 3 to the termination of breathing by the mice was determined to be the survival time. The results were compared with that of a control group to which only a physiological saline was injected.

Structure (SMILES)	inhibition of the formation of the lipid peroxides ([2]; at a dose of 10 mg/kg)	inhibition of the formation of the lipid peroxides ([2]; at a dose of 50 mg/kg)	extension of the gasping time (Male ddY mice [5])	further results
COc1ccc(O)c(C(CCC(=O)N2CCN(C)CC2)c2ccccc2)c1 (stereo not shown) [Example 1, 4-(2-hyddroxy-5-methoxy)phenyl-4-phenyl-1-(4-methyl)piperazinyl-1-oxobutane]	caused inhibition			minimal effective dose (Male ddY mice [1]): 50 mg/kg; Antilipid Peroxidation, % inhibition of the rat brain homogenate (rat brain homogenate): 95.4%; minimal effective dose (Male ddY mice [3]): 50 mg/kg; minimal effective dose (Male ddY mice [4]; Mus musculus, read-out: Normobaric Hypoxia EDmin (Minimum effective dose)): 50 mg/kg; minimal effective dose (Male ddY mice [5]): 25 mg/kg; minimal effective dose (Male mice): 50 mg/kg
COc1ccc(O)c(C(CCC(=O)N2CCCCC2)c2ccccc2)c1 (stereo not shown) [Example 3]		significant difference in the inhibition of the formation of the lipid peroxides		
COc1ccc(O)c(C(CCC(=O)N2CCN(c3ccccc3)CC2)c2ccccc2)c1 (stereo not shown) [Example 4]	caused inhibition			
COc1ccc(O)c(C(CCC(=O)N(C)Cc2ccccc2)c2ccccc2)c1 (stereo not shown) [Example 6]	caused inhibition		significant difference in the extension of the gasping time	
COc1ccc(O)c(C(CCC(=O)N2CCN(CCO)CC2)c2ccccc2)c1 (stereo not shown) [Example 7]				minimal effective dose (Male ddY mice [1]): 25 mg/kg; Antilipid Peroxidation, % inhibition of the rat brain homogenate (rat brain homogenate): 88.0%; minimal effective dose (Male ddY mice [3]): 50 mg/kg; Normobaric Hypoxia EDmin (Minimum effective dose) (Male ddY mice [4]): Inactive at 50 mg/kg, ip; minimal effective dose (Male ddY mice [5]): 50 mg/kg; minimal effective dose (Male mice): 25 mg/kg
COc1ccc(O)c(C(CCC(=O)N2CCSCC2)c2ccccc2)c1 (stereo not shown) [Example 8]				inhibition of the formation of the lipid peroxides ([2]; at a dose of 5 mg/kg): caused inhibition
COc1ccc(O)c(C(CCC(=O)NCc2ccccn2)c2ccccc2)c1 (stereo not shown) [Example 9]	caused inhibition			
COc1ccc(O)c(C(CCC(=O)NN2CCOCC2)c2ccccc2)c1 (stereo not shown) [Example 12]		significant difference in the inhibition of the formation of the lipid peroxides		
COc1ccc(O)c(C(CCC(=O)N2CCCC2)c2ccccc2)c1 (stereo not shown) [Example 13]		significant difference in the inhibition of the formation of the lipid peroxides		
CCOC(=O)c1ccc(Oc2cccc(OC)c2)c(NC(=O)CCC(c2ccccc2)c2cc(OC)ccc2O)c1 (stereo not shown) [Example 15]			significant difference in the extension of the gasping time	
COc1ccc(O)c(C(CCC(=O)N2CCCN(C)CC2)c2ccccc2)c1 (stereo not shown) [Example 18]		significant difference in the inhibition of the formation of the lipid peroxides		
COc1ccc(O)c(C(CCC(=O)NCCN2CCCCC2)c2ccccc2)c1 (stereo not shown) [Example 19, 4-(2-hydroxy-5-methoxy)phenyl-4-phenyl-1-(2-piperidinyl)ethylamino-1-oxobutane hydrochloride]			significant difference in the extension of the gasping time	survival time (hypobaric hypoxia) compared with the control group (Male ddY mice [3]; dose not clearly stated): reduced the survival time
COc1ccc(O)c(C(CCC(=O)N2CCNCC2)c2ccccc2)c1 (stereo not shown) [Example 28, 4-(2-hydroxy-5-methoxy)phenyl-4-phenyl-1-piperazinyl-1-oxobutane]		significant difference in the inhibition of the formation of the lipid peroxides		
COc1ccc(O)c(C(CCC(=O)N2CCN(C(=O)CCC(c3ccccc3)c3cc(OC)ccc3O)CC2)c2ccccc2)c1 (stereo not shown) [Example 29, N,N'-bis[(4-(2-hydroxy-5-methoxy)phenyl-4-phenyl)-1-oxobutyl]piperazine]	caused inhibition			
COc1ccc(O)c(C(CCC(=O)N2CCCNCC2)c2ccccc2)c1 (stereo not shown) [Example 30, 4-(2-hydroxy-5-methoxy)phenyl-4-phenyl-1-homopiperazinyl-1-oxobutane]			significant difference in the extension of the gasping time	
COc1ccc(O)c(C(CCC(=O)N2CCCN(C(=O)CCC(c3ccccc3)c3cc(OC)ccc3O)CC2)c2ccccc2)c1 (stereo not shown) [Example 31, N,N'-bis-[(4-(2-hydroxy-5-methoxy)phenyl-4-phenyl)-1-oxobutyl]homopiperazine]		significant difference in the inhibition of the formation of the lipid peroxides		
COc1ccc(O)c(C(CCC(=O)NCCN2CCNCC2)c2ccccc2)c1 (stereo not shown) [Example 32]			significant difference in the extension of the gasping time	
COc1ccc(O)c(C(CCC(=O)NCCN2CCN(C(=O)CCC(c3ccccc3)c3cc(OC)ccc3O)CC2)c2ccccc2)c1 (stereo not shown) [Example 33, 4-(2-hydroxy-5-methoxy)phenyl-1-[4-(2-(4-(2-hydroxy-5-methoxy)phenyl-4-phenyl-1-oxo)aminoethyl)piperadinyl]-1-oxobutane]		significant difference in the inhibition of the formation of the lipid peroxides	significant difference in the extension of the gasping time	extension of the survival time (hypobaric hypoxia) (Male ddY mice [3]; at a dose of 50 mg/kg or less, injected): significant difference in the extension of the survival time
COc1ccc(O)c(C(CCC(=O)OCCN(C)C)c2ccccc2)c1 (stereo not shown) [Example 36, 4-(2-hydroxy-5-methoxy)phenyl-4-phenyl-1-(2-dimethylamino)ethyloxy-1-oxybutane]	caused inhibition			
